Where a name gives a salt, the structure may show the parent alone. Read-outs that look alike come from different tables or passages of the source.
How the values were obtained:
[1] = biological target: T1, DPP IV (Felis catus, UniProt Q9N2I7); test: DPP IV activity in obese/non-obese cats, 7 days once daily dosing; assay type: in vivo, cat; settings: 9 mg daily, percent of 0 h
T1 construct: Blood samples for the determination of this compound and DPP IV activity were collected; from tissue; host or cells: plasma of domestic short hair / purpose-bred cats dosed orally
Description: The aim of this exploratory, randomized, placebo controlled crossover study was to investigate the effect of 1-[(3-cyano-pyridin-2-yl)methyl]-3-methyl-7-(2-butyn-1-yl)-8-[3-(R)-amino-piperidin-1-yl]-xanthine monohydrochloride on DPP IV activity and on glucose concentrations in obese and non-obese cats after repeated oral administration over seven days.
Fourteen clinically healthy male and female (8 obese and 6 non-obese) purpose-bred cats were used in this study. The animals were randomly allocated to two groups of cats, obese and non-obese, and treated in a cross-over design with 9 mg 1-[(3-cyano-pyridin-2-yl)methyl]-3-methyl-7-(2-butyn-1-yl)-8-[3-(R)-amino-piperidin-1-yl]-xanthine monohydrochloride or placebo, once daily for 7 days, with a following wash-out period of 21 days.
Cats were fed once daily 40 min after administration of the compound or the placebo, respectively.
In parallel, DPP IV activity was assessed as above.

[2] = biological target: T1, DPP IV; test: Exploratory single dose PK/PD (0.3/1.0/3.0 mg/kg) in cats: DPP IV activity; assay type: in vivo, cat; settings: for response vs control in vivo at 0.3 mg/kg: 0.3 mg/kg single oral; for response vs control in vivo at 0.3 mg/kg / response vs control in vivo at 1 mg/kg / response vs control in vivo at 3 mg/kg: read-out: DPP IV activity in cat plasma (0 h = 100%); for response vs control in vivo at 1 mg/kg: 1 mg/kg single oral; for response vs control in vivo at 3 mg/kg: 3 mg/kg single oral
Experimental: The aim of this first study was to investigate the PK/PD of 1-[(3-cyano-pyridin-2-yl)methyl]-3-methyl-7-(2-butyn-1-yl)-8-[3-(R)-amino-piperidin-1-yl]-xanthine in the cat after a single oral administration of 0, 0.3, 1.0 and 3.0 mg/kg body weight. For this purpose, twelve male clinically healthy adult domestic short hair cats with a body weight range of 3.5-4.5 kg were used. All animals were treated once orally with placebo or the respective 1-[(3-cyano-pyridin-2-yl)methyl]-3-methyl-7-(2-butyn-1-yl)-8-[3-(R)-amino-piperidin-1-yl]-xanthine monohydrochloride dose formulation. Blood samples for the determination of this compound and DPP IV activity were collected at 0 (pre-dose), 0.5, 1, 2, 4, 8, 24, 36, 48, 72 and 96 hours after treatment and the activity of DPP IV was determined like in example 6.
The resulting pharmacodynamic data from this experiment are summarized in following Table 3; the value of 0 h was set to 100% for each treatment.

[3] = biological target: Prolyl-Oligo Peptidase (or Prolyl Endopeptidase) (Homo sapiens, UniProt P48147); test: In vitro selectivity, human proteases: Prolyl-Oligo Peptidase; assay type: biochemical; settings: up to 100 μM
Description: In order to determine the in vitro selectivity of 1-[(3-cyano-pyridin-2-yl)methyl]-3-methyl-7-(2-butyn-1-yl)-8-[3-(R)-amino-piperidin-1-yl]-xanthine, the ability of this compound to inhibit a number of human proteases was investigated as described in Thomas et al. (2008), J. Pharmacol. Exp. Ther., vol. 325, p. 175-182, chapter In vitro DPP-4 Inhibition Assay, p. 176.

T1 sequence (Q9N2I7 38-765 limits assumed): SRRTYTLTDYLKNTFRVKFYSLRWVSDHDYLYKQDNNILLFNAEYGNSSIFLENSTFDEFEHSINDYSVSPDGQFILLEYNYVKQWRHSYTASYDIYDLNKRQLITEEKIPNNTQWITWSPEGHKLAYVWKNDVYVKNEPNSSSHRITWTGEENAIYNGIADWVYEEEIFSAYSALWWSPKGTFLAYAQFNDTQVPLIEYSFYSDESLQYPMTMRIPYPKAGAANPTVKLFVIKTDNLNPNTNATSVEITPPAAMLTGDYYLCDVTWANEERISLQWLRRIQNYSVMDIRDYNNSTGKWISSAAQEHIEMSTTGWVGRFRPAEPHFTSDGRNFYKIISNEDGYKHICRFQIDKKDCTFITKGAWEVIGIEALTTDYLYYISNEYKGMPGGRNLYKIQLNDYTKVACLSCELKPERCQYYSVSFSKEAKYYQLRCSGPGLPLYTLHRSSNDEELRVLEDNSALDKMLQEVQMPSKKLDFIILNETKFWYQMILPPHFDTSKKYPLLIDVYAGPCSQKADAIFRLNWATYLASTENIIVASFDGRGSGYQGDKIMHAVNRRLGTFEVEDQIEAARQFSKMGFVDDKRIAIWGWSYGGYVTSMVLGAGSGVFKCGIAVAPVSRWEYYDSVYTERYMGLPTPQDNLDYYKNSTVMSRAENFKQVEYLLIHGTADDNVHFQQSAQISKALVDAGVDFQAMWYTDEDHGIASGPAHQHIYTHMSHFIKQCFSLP
Sequence of Prolyl-Oligo Peptidase (or Prolyl Endopeptidase) (P48147 whole entry): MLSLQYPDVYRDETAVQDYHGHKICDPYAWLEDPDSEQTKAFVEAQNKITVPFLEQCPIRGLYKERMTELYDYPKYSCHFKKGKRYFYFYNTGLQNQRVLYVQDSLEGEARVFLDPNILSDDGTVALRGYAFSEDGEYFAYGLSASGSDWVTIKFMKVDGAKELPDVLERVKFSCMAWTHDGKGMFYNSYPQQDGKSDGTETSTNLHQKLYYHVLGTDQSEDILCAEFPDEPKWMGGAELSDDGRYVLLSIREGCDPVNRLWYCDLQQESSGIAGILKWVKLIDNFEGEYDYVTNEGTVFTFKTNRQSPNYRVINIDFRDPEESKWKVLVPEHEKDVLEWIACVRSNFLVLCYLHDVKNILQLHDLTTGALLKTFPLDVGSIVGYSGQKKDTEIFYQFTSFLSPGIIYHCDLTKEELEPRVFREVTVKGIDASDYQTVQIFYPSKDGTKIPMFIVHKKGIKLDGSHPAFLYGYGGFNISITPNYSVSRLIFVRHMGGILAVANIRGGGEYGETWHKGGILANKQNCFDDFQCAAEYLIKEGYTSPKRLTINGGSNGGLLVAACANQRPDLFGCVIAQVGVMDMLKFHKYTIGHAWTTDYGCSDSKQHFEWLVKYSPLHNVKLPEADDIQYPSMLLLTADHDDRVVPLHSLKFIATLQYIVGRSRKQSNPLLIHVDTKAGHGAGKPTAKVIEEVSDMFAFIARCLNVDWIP

Work on `CC#CCn1c(N2CCC[C@@H](N)C2)nc2c1c(=O)n(Cc1ncccc1C#N)c(=O)n2C` [1-[(3-cyano-pyridin-2-yl)methyl]-3-methyl-7-(2-butyn-1-yl)-8-[3-(R)-amino-piperidin-1-yl]-xanthine monohydrochloride] yielded an activity at 9 mg ([1]; Non-obese cats (n = 6), 1 h, read-out: DPP-IV activity %, Max) of 25.4%, an activity at 9 mg ([1]; Non-obese cats (n = 6), 1 h, read-out: DPP-IV activity %, Mean ± STD) of 13.8 ± 5.8% and an activity at 9 mg ([1]; Non-obese cats (n = 6), 1 h, read-out: DPP-IV activity %, Median) of 11.3%. For the same compound, the activity at 9 mg ([1]; Non-obese cats (n = 6), 1 h, read-out: DPP-IV activity %, Min) was 8.4%, the activity at 9 mg ([1]; Non-obese cats (n = 6), 6 h, read-out: DPP-IV activity %, Max) was 25% and the activity at 9 mg ([1]; Non-obese cats (n = 6), 6 h, read-out: DPP-IV activity %, Mean ± STD) was 14.4 ± 5.7%. It also gave an activity at 9 mg ([1]; Non-obese cats (n = 6), 6 h, read-out: DPP-IV activity %, Median) of 11.4%, an activity at 9 mg ([1]; Non-obese cats (n = 6), 6 h, read-out: DPP-IV activity %, Min) of 9.5% and an activity at 9 mg ([1]; Non-obese cats (n = 6), 24 h, read-out: DPP-IV activity %, Max) of 45.1%. It also gave an activity at 9 mg ([1]; Non-obese cats (n = 6), 24 h, read-out: DPP-IV activity %, Mean ± STD) of 20.1 ± 12%, an activity at 9 mg ([1]; Non-obese cats (n = 6), 24 h, read-out: DPP-IV activity %, Median) of 15.3% and an activity at 9 mg ([1]; Non-obese cats (n = 6), 24 h, read-out: DPP-IV activity %, Min) of 8.6%. It also gave an activity at 9 mg ([1]; Non-obese cats (n = 6), 72 h, read-out: DPP-IV activity %, Max) of 27.9%, an activity at 9 mg ([1]; Non-obese cats (n = 6), 72 h, read-out: DPP-IV activity %, Mean ± STD) of 18.2 ± 6% and an activity at 9 mg ([1]; Non-obese cats (n = 6), 72 h, read-out: DPP-IV activity %, Median) of 18.9%. The activity at 9 mg ([1]; Non-obese cats (n = 6), 72 h, read-out: DPP-IV activity %, Min) was 8.5%, the activity at 9 mg ([1]; Non-obese cats (n = 6), 168 h, read-out: DPP-IV activity %, Max) was 23.5% and the activity at 9 mg ([1]; Non-obese cats (n = 6), 168 h, read-out: DPP-IV activity %, Mean ± STD) was 17.4 ± 4.7%. The activity at 9 mg ([1]; Non-obese cats (n = 6), 168 h, read-out: DPP-IV activity %, Median) was 18.2%, the activity at 9 mg ([1]; Non-obese cats (n = 6), 168 h, read-out: DPP-IV activity %, Min) was 10.6% and the activity at 9 mg ([1]; Obese cats (n = 8), 1 h, read-out: DPP-IV activity %, Max) was 17.5%. For the same compound, the activity at 9 mg ([1]; Obese cats (n = 8), 1 h, read-out: DPP-IV activity %, Mean ± STD) was 12.1 ± 4%, the activity at 9 mg ([1]; Obese cats (n = 8), 1 h, read-out: DPP-IV activity %, Median) was 11.1% and the activity at 9 mg ([1]; Obese cats (n = 8), 1 h, read-out: DPP-IV activity %, Min) was 7.5%. It also gave an activity at 9 mg ([1]; Obese cats (n = 8), 6 h, read-out: DPP-IV activity %, Max) of 20%, an activity at 9 mg ([1]; Obese cats (n = 8), 6 h, read-out: DPP-IV activity %, Mean ± STD) of 11.9 ± 3.9% and an activity at 9 mg ([1]; Obese cats (n = 8), 6 h, read-out: DPP-IV activity %, Median) of 10.5%. It also gave an activity at 9 mg ([1]; Obese cats (n = 8), 6 h, read-out: DPP-IV activity %, Min) of 7.4%, an activity at 9 mg ([1]; Obese cats (n = 8), 24 h, read-out: DPP-IV activity %, Max) of 26.5% and an activity at 9 mg ([1]; Obese cats (n = 8), 24 h, read-out: DPP-IV activity %, Mean ± STD) of 17 ± 5.2%. It also gave an activity at 9 mg ([1]; Obese cats (n = 8), 24 h, read-out: DPP-IV activity %, Median) of 15.4%, an activity at 9 mg ([1]; Obese cats (n = 8), 24 h, read-out: DPP-IV activity %, Min) of 11.4% and an activity at 9 mg ([1]; Obese cats (n = 8), 72 h, read-out: DPP-IV activity %, Max) of 23.9%. The activity at 9 mg ([1]; Obese cats (n = 8), 72 h, read-out: DPP-IV activity %, Mean ± STD) was 18.4 ± 4.4%, the activity at 9 mg ([1]; Obese cats (n = 8), 72 h, read-out: DPP-IV activity %, Median) was 18.5% and the activity at 9 mg ([1]; Obese cats (n = 8), 72 h, read-out: DPP-IV activity %, Min) was 12.2%. The activity at 9 mg ([1]; Obese cats (n = 8), 168 h, read-out: DPP-IV activity %, Max) was 39.8%, the activity at 9 mg ([1]; Obese cats (n = 8), 168 h, read-out: DPP-IV activity %, Mean ± STD) was 19.9 ± 9% and the activity at 9 mg ([1]; Obese cats (n = 8), 168 h, read-out: DPP-IV activity %, Median) was 19.2%. The activity at 9 mg ([1]; Obese cats (n = 8), 168 h, read-out: DPP-IV activity %, Min) was 8.6%, the response vs control in vivo at 0.3 mg/kg ([2]; 0.5 h) was 15% and the response vs control in vivo at 0.3 mg/kg ([2]; 1 h) was 13%. It also gave a response vs control in vivo at 0.3 mg/kg ([2]; 2 h) of 13%, a response vs control in vivo at 0.3 mg/kg ([2]; 4 h) of 15% and a response vs control in vivo at 0.3 mg/kg ([2]; 8 h) of 19%. It also gave a response vs control in vivo at 0.3 mg/kg ([2]; 24 h) of 54%, a response vs control in vivo at 0.3 mg/kg ([2]; 36 h) of 84% and a response vs control in vivo at 0.3 mg/kg ([2]; 48 h) of 93%. It also gave a response vs control in vivo at 0.3 mg/kg ([2]; 72 h) of 95%, a response vs control in vivo at 0.3 mg/kg ([2]; 96 h) of 95% and a response vs control in vivo at 1 mg/kg ([2]; 0.5 h) of 11%. It also gave a response vs control in vivo at 1 mg/kg ([2]; 1 h) of 11%, a response vs control in vivo at 1 mg/kg ([2]; 2 h) of 12% and a response vs control in vivo at 1 mg/kg ([2]; 4 h) of 12%. The response vs control in vivo at 1 mg/kg ([2]; 8 h) was 15%, the response vs control in vivo at 1 mg/kg ([2]; 24 h) was 42% and the response vs control in vivo at 1 mg/kg ([2]; 36 h) was 67%. The response vs control in vivo at 1 mg/kg ([2]; 48 h) was 80%, the response vs control in vivo at 1 mg/kg ([2]; 72 h) was 91% and the response vs control in vivo at 1 mg/kg ([2]; 96 h) was 92%. It also gave a response vs control in vivo at 3 mg/kg ([2]; 0.5 h) of 16%, a response vs control in vivo at 3 mg/kg ([2]; 1 h) of 13% and a response vs control in vivo at 3 mg/kg ([2]; 2 h) of 12%. The response vs control in vivo at 3 mg/kg ([2]; 4 h) was 14%, the response vs control in vivo at 3 mg/kg ([2]; 8 h) was 17% and the response vs control in vivo at 3 mg/kg ([2]; 24 h) was 49%. For the same compound, the response vs control in vivo at 3 mg/kg ([2]; 36 h) was 66%, the response vs control in vivo at 3 mg/kg ([2]; 48 h) was 85% and the response vs control in vivo at 3 mg/kg ([2]; 72 h) was 101%. For the same compound, the response vs control in vivo at 3 mg/kg ([2]; 96 h) was 95%, the “inhibition of DPP IV” value ([2]; all doses (0.3, 1.0, 3.0 mg/kg single oral)) was “more than 80%” and the “inhibitory effect on Prolyl-Oligo Peptidase” value [3] was “did not exert any inhibitory effect”.
